Measured values: patent publication US20070004660A1, “Synergistic Modulation of Flt3 Kinase Using Alkylquinolines and Alkylquinazolines” (priority 2005, published 2007)
pIC50: −log10 of the molar value.

Tests used:
[1] = target: T1, isolated kinase domain of the human FLT3 receptor (a.a. 571-993) (Homo sapiens, UniProt P36888); experiment: FLT3 fluorescence polarization kinase assay; type: biochemical; details: 150 uM ATP; uncertainty ±10%
T1 construct: human FLT3 receptor (a.a. 571-993)
T1 sequence (P36888 571-993): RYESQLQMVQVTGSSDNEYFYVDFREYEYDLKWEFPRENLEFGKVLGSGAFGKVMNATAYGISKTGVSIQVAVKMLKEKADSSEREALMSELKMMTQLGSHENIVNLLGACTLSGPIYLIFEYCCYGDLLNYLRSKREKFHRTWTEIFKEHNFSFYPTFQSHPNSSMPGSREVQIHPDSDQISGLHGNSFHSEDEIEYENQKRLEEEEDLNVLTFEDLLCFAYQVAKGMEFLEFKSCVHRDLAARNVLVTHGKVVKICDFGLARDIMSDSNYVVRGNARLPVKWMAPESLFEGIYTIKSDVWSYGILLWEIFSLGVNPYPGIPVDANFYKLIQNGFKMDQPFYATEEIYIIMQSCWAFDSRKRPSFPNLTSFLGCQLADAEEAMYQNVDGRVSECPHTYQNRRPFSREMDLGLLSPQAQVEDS
Procedure: The FLT3 FP assay utilizes the fluorescein-labeled phosphopeptide and the anti-phosphotyrosine antibody included in the Panvera Phospho-Tyrosine Kinase Kit (Green) supplied by Invitrogen. When FLT3 phosphorylates polyGlu4Tyr, the fluorescein-labeled phosphopeptide is displaced from the anti-phosphotyrosine antibody by the phosphorylated poly Glu4Tyr, thus decreasing the FP value. The FLT3 kinase reaction is incubated at room temperature for 30 minutes under the following conditions: 10 nM FLT3 571-993, 20 ug/mL poly Glu4Tyr, 150 uM ATP, 5 mM MgCl2, 1% compound in DMSO. The kinase reaction is stopped with the addition of EDTA. The fluorescein-labeled phosphopeptide and the anti-phosphotyrosine antibody are added and incubated for 30 minutes at room temperature.
All data points are an average of triplicate samples. Inhibition and IC50 data analysis was done with GraphPad Prism using a non-linear regression fit with a multiparamater, sigmoidal dose-response (variable slope) equation.

[2] = target: T2, wild-type FLT3 receptor (Homo sapiens, UniProt P36888); experiment: Cell-based FLT3 receptor ELISA (FLT ligand-induced phosphorylation in Baf3 FLT3 cells); details: 100 ng/mL Flt ligand, uncertainty ±20%
T2 construct: host or cells: Baf3 (murine B cell lymphoma line), stably transfected
T2 sequence (P36888 27-993): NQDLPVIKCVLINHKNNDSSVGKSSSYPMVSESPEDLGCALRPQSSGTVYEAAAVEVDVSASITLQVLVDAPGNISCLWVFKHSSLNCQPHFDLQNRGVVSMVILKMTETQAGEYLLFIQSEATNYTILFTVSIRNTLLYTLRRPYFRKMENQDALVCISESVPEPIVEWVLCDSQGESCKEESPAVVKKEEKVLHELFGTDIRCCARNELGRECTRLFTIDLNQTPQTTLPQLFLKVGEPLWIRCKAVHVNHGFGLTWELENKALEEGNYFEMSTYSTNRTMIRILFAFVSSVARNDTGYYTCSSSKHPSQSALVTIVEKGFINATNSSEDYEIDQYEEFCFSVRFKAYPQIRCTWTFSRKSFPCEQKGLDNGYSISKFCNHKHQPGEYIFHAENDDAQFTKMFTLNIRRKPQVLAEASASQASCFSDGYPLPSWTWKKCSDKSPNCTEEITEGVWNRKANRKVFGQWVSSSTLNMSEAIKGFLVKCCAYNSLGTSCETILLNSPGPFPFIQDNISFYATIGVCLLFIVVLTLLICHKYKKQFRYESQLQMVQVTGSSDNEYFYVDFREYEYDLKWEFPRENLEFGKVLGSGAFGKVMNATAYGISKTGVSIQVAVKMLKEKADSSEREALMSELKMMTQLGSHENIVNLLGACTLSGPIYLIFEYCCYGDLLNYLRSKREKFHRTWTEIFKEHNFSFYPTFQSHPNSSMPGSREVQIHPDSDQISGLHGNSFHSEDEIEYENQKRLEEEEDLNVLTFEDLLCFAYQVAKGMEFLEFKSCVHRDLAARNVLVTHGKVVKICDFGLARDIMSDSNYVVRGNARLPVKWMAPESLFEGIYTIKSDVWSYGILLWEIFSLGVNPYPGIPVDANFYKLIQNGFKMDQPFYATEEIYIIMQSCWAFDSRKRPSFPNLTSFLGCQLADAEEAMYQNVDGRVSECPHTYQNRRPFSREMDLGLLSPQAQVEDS
Procedure: Specific cellular inhibition of FLT ligand-induced wild-type FLT3 phosphorylation was measured in the following manner: Baf3 FLT3 cells overexpressing the FLT3 receptor were obtained from Dr. Michael Heinrich (Oregon Health and Sciences University). The Baf3 FLT3 cell lines were created by stable transfection of parental Baf3 cells (a murine B cell lymphoma line dependent on the cytokine IL-3 for growth) with wild-type FLT3. Cells were selected for their ability to grow in the absence of IL-3 and in the presence of FLT3 ligand. Baf3 cells were maintained in RPMI 1640 with 10% FBS, penn/strep and 10 ng/ml FLT ligand at 37° C., 5% CO2. To measure direct inhibition of the wild-type FLT3 receptor activity and phosphorylation a sandwich ELISA method was developed similar to those developed for other RTKs (see Sadick, M D, Sliwkowski, M X, Nuijens, A, Bald, L, Chiang, N, Lofgren, J A, Wong W L T. Analysis of Heregulin-Induced ErbB2 Phosphorylation with a High-Throughput Kinase Receptor Activation Enzyme-Linked Immunsorbent Assay, Analytical Biochemistry. 1996; 235:207-214 and Baumann C A, Zeng L, Donatelli R R, Maroney A C. Development of a quantitative, high-throughput cell-based enzyme-linked immunosorbent assay for detection of colony-stimulating factor-1 receptor tyrosine kinase inhibitors. J Biochem Biophys Methods. 2004; 60:69-79.). 200 μL of Baf3FLT3 cells (1×10^6 /mL) were plated in 96 well dishes in RPMI 1640 with 0.5% serum and 0.01 ng/mL IL-3 for 16 hours prior to 1 hour compound or DMSO vehicle incubation. Cells were treated with 100 ng/mL Flt ligand (R&D Systems Cat# 308-FK) for 10 min. at 37° C. Cells were pelleted, washed and lysed in 100 ul lysis buffer (50 mM Hepes, 150 mM NaCl, 10% Glycerol, 1% Triton-X-100, 10 mM NaF, 1 mM EDTA, 1.5 mM MgCl2, 10 mM NaPyrophosphate) supplemented with phosphatase (Sigma Cat# P2850) and protease inhibitors (Sigma Cat #P8340). Lysates were cleared by centrifugation at 1000×g for 5 minutes at 4° C. Cell lysates were transferred to white wall 96 well microtiter (Costar #9018) plates coated with 50 ng/well anti-FLT3 antibody (Santa Cruz Cat# sc-480) and blocked with SeaBlock reagent (Pierce Cat#37527). Lysates were incubated at 4° C. for 2 hours. Plates were washed 3× with 200 ul/well PBS/0.1% Triton-X-100. Plates were then incubated with 1:8000 dilution of HRP-conjugated anti-phosphotyrosine antibody (Clone 4G10, Upstate Biotechnology Cat#16-105) for 1 hour at room temperature. Plates were washed 3× with 200 ul/well PBS/0.1% Triton-X-100. Signal detection with Super Signal Pico reagent (Pierce Cat#37070) was done according to manufacturer's instruction with a Berthold microplate luminometer. All data points are an average of triplicate samples. […] Inhibition and IC50 data analysis was done with GraphPad Prism using a non-linear regression fit with a multiparamater, sigmoidal dose-response (variable slope) equation.

[3] = system: MV4-11 cells; experiment: Inhibition of MV4-11 cell proliferation (CellTiterGlo, 72 h); type: cell-based; details: Homo sapiens; 72 h growth inhibition; uncertainty ±20%
Procedure: MV4-11 cells cannot grow and survive without active FLT3ITD.
To measure proliferation inhibition by test compounds, the luciferase based CellTiterGlo reagent (Promega), which quantifies total cell number based on total cellular ATP concentration, was used. Cells are plated at 10,000 cells per well in 100 ul of in RPMI media containing penn/strep, 10% FBS and 1 ng/ml GM-CSF or 1 ng/ml IL-3 for MV4-11 and Baf3 cells respectively.
Compound dilutions or 0.1% DMSO (vehicle control) are added to cells and the cells are allowed to grow for 72 hours at standard cell growth conditions (37° C., 5% CO2). For activity measurements in MV4-11 cells grown in 50% plasma, cells were plated at 10,000 cells per well in a 1:1 mixture of growth media and human plasma (final volume of 100 μL). To measure total cell growth an equal volume of CellTiterGlo reagent was added to each well, according to the manufacturer's instructions, and luminescence was quantified. Total cell growth was quantified as the difference in luminescent counts (relative light units, RLU) of cell number at Day 0 compared to total cell number at Day 3 (72 hours of growth and/or compound treatment). One hundred percent inhibition of growth is defined as an RLU equivalent to the Day 0 reading. Zero percent inhibition was defined as the RLU signal for the DMSO vehicle control at Day 3 of growth. All data points are an average of triplicate samples. […] Inhibition and IC50 data analysis was done with GraphPad Prism using a non-linear regression fit with a multiparamater, sigmoidal dose-response (variable slope) equation.
MV4-11 cells express the FLT3 internal tandem duplication mutation, and thus are entirely dependent upon FLT3 activity for growth. […] In contrast, the Baf3 cell proliferation is driven by the cytokine IL-3 and thus are used as a non-specific toxicity control for test compounds.

| Compound | pIC50 [1] | pIC50 [2] | pIC50 [3] |
| --- | --- | --- | --- |
| COC[C@H]1CCCN1c1ccc2c(C3CCN(C(=O)Nc4ccc(N5CCOCC5)cc4)CC3)ncnc2c1 [Example 130, (R)-4-[7-(2-Methoxymethyl-pyrrolidin-1-yl)-quinazolin-4-yl]-piperidine-1-carboxylic acid (4-morpholin-4-yl-phenyl)-amide] | 6.20 | 6.23 | – |
| COc1cc2c(C3CCN(C(=O)Nc4ccc(N5CCCC5)cc4)CC3)ncnc2cc1OCCCN1CCN(C)CC1 [Compound 208, 4-{6-Methoxy-7-[3-(4-methyl-piperazin-1-yl)-propoxy]-quinazolin-4-yl}-piperidine-1-carboxylic acid (4-pyrrolidin-1-yl-phenyl)-amide] | 8.70 | – | 8.52 |
| COc1cc2ncnc(C3CCN(C(=O)Nc4ccc(Cl)cc4)CC3)c2cc1OC [Example 49, 4-(6,7-Dimethoxy-quinazolin-4-yl)-piperidine-1-carboxylic acid (4-chloro-phenyl)-amide] | – | < 5.52 | 5.15 |

Next, values leading:

| pIC50 [1] | pIC50 [2] | pIC50 [3] | Compound |
| --- | --- | --- | --- |
| 8.10 | 8.70 | – | O=C(Nc1ccc(N2CCOCC2)cc1)N1CCC(c2ncnc3cc(OCCCN4CCNCC4)ccc23)CC1 [Example 123, 4-[7-(3-Piperazin-1-yl-propoxy)-quinazolin-4-yl]-piperidine-1-carboxylic acid (4-morpholin-4-yl-phenyl)-amide] |
| – | 6.45 | 6.48 | COc1cc2ncnc(C3CCN(C(=O)Nc4ccc(C5CCNCC5)cc4)CC3)c2cc1OC [Example 64, 4-(6,7-Dimethoxy-quinazolin-4-yl)-piperidine-1-carboxylic acid (4-piperidin-4-yl-phenyl)-amide] |
| 6.59 | 7.43 | – | CN1CCC(Oc2ccc3c(C4CCN(C(=O)Nc5ccc(N6CCOCC6)cc5)CC4)ncnc3c2)CC1 [Example 127, 4-[7-(1-Methyl-piperidin-4-yloxy)-quinazolin-4-yl]-piperidine-1-carboxylic acid (4-morpholin-4-yl-phenyl)-amide] |
